The subject of test [1] is Human alphaherpesvirus 1. Briefly: Antiviral activity against HSV1 infected in african green monkey Vero cells assessed as reduction in virus plaque formation at 10 ug per 10^5 cells by plaque infectivity assay. In kind it is functional. Set-up: scale not given: the % may be the effect or the level left.
Test [2] deals with Human alphaherpesvirus 1. Nature of the test: Antiviral activity against HSV1 infected in african green monkey Vero cells assessed as reduction in virus plaque formation at 20 ug per 10^5 cells by plaque infectivity assay. In kind it is functional. Set-up: scale not given: the % may be the effect or the level left.

This is an account of results in ChEMBL document CHEMBL1152999, “Synthesis and anti-HSV-1 evaluation of some pyrazoles and fused pyrazolopyrimidines” (2009).

Take `Cc1nc2c(cnn2-c2ncnc3sc4c(c23)-c2ccccc2CC4)c(=O)[nH]1`: the Activity is listed as 44.4% with Human alphaherpesvirus 1 [1] and 0% with Human alphaherpesvirus 1 [2].

For `O=c1[nH]cnc2c1cnn2-c1ncnc2sc3c(c12)-c1ccccc1CC3`, the Activity in the test with Human alphaherpesvirus 1 [1] is recorded as 47.7%; in the test with Human alphaherpesvirus 1 [2], 0%.

`CC(=O)OC[C@@H](OC(C)=O)[C@H](OC(C)=O)[C@@H](OC(C)=O)[C@H](OC(C)=O)c1nc2c3cnn(-c4ncnc5sc6c(c45)-c4ccccc4CC6)c3ncn2n1`: the Activity in the test on Human alphaherpesvirus 1 [1] was found to be 29%; in the test with Human alphaherpesvirus 1 [2], 57%.

With `N#Cc1cnn(-c2ncnc3sc4c(c23)-c2ccccc2CC4)c1N`, the values for the Activity with Human alphaherpesvirus 1 [1] and in the test on Human alphaherpesvirus 1 [2] were 16.6% and 0%, respectively.

For the compound `Nc1ncnc2c1cnn2-c1ncnc2sc3c(c12)-c1ccccc1CC3`, the values for the Activity in the test on Human alphaherpesvirus 1 [1] and in the test with Human alphaherpesvirus 1 [2] were 44.6% and 0%, respectively.

For the compound `N#Cc1cnn(-c2ncnc3sc4c(c23)-c2ccccc2CC4)c1NC=O`, the Activity in the test with Human alphaherpesvirus 1 [1] is on record as 28.5%; in the test with Human alphaherpesvirus 1 [2], 48%.

Turning to `OC[C@@H](O)[C@H](O)[C@@H](O)[C@H](O)/C=N/Nc1ncnc2c1cnn2-c1ncnc2sc3c(c12)-c1ccccc1CC3`, the Activity in the test on Human alphaherpesvirus 1 [1] was 43%; in the test with Human alphaherpesvirus 1 [2], 99%.

On to `NNc1ncnc2c1cnn2-c1ncnc2sc3c(c12)-c1ccccc1CC3`, for which the Activity in the test on Human alphaherpesvirus 1 [1] stood at 56%; in the test with Human alphaherpesvirus 1 [2], 0%.

In the case of `CC(=O)OC[C@@H](OC(C)=O)[C@H](OC(C)=O)[C@@H](OC(C)=O)[C@@H](/C=N/Nc1ncnc2c1cnn2-c1ncnc2sc3c(c12)-c1ccccc1CC3)OC(C)=O`, the Activity in the test on Human alphaherpesvirus 1 [1] came out at 34%; with Human alphaherpesvirus 1 [2], 69%.

As to `CC(=O)Nc1c(C#N)cnn1-c1ncnc2sc3c(c12)-c1ccccc1CC3`, the values for the Activity with Human alphaherpesvirus 1 [1] and with Human alphaherpesvirus 1 [2] were 0% and 67.6%, respectively.

In the case of `Nc1nc2c(ncn2COCCO)c(=O)[nH]1` [ACYCLOVIR], the Activity was found to be 12% in the test with Human alphaherpesvirus 1 [1] and 28% in the test on Human alphaherpesvirus 1 [2].
